This note sets out measurements from patent publication US8188135B2, “Compounds as cannabinoid receptor ligands” (priority 2008, dated 2012).

Data set [1] in a line: pharmacokinetic studies in rats. Particulars: male, Sprague-Dawley, rat; for clearance / half-life: iv; for bioavailability: po. Here is the method: Male Sprague-Dawley rats, weighing 250-400 g, were obtained from Charles Rivers Laboratories. Pharmacokinetic studies were conducted in three groups of rats; each group contained three animals. All groups were dosed with a solution formulation. The first group of three rats received an intravenous dose, administered under isoflurane anesthetic. The second group received an intraperitoneal dose and the third group received an oral dose, administered by gavage. Sequential blood samples were obtained from a tail vein of each animal for 8-24 hours after dosing. Plasma was separated by centrifugation and stored frozen until analysis.
Half life […] and plasma clearance values are based on intravenous administration (3 micromole/kg).
Half life (t1/2) and plasma clearance values are based on intravenous administration (3 micromole/kg).

The next data set addresses T1, human CB2 receptors (Homo sapiens, UniProt P34972).
T1 construct: expressed in transfected cells; host or cells: HEK293
Kind of data set: human CB2 radioligand binding assay ([3H]CP 55,940 competition). Particulars: HEK293 membranes, 0.5 nM [3H]CP 55,940. Put shortly: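 Displacement of 0.5 nM [3H]CP 55,940 over 0.01 nM-10 μM test compound, measured on human CB2 membranes from stably transfected HEK293 cells. Incubation 90 min at 30 °C in Tris/EDTA/MgCl2/BSA, pH 7.4, then filter-bound radioactivity counted; 10 μM unlabeled CP 55,940 defined nonspecific binding.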

In another data set the target is T2, rat CB2 (Rattus norvegicus, UniProt Q9QZN9).
T2 sequence (Q9QZN9 1-360): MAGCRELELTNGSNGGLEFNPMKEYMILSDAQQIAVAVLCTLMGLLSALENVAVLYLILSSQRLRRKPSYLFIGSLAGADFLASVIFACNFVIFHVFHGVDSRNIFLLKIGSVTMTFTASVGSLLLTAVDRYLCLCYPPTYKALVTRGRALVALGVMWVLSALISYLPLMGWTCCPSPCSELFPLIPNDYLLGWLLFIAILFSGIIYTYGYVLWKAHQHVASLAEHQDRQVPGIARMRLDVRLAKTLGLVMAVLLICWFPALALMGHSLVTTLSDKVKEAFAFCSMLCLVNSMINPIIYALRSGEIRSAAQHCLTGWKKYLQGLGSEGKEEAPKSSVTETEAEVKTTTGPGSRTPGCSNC
Kind of data set: rat CB2 radioligand binding assay ([3H]CP 55,940 competition). More on the design: expressed in transfected cells; host or cells: HEK293. Particulars: HEK293 membranes, 0.5 nM [3H]CP 55,940. Summed up:
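Competition binding against 0.5 nM [3H]CP 55,940 (pH 7.4 buffer with 0.5 mg/mL BSA, 30 °C, 45 min), with displacers spanning 0.01 nM–10 μM at five concentrations. Receptor source: stably transfected HEK293 membranes, 20 μg/well. Nonspecific binding defined by 10 μM unlabeled CP 55,940; readout by filtration and counting.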

Where two headings read alike, the source gives them in different places.

T1 sequence (P34972 whole entry): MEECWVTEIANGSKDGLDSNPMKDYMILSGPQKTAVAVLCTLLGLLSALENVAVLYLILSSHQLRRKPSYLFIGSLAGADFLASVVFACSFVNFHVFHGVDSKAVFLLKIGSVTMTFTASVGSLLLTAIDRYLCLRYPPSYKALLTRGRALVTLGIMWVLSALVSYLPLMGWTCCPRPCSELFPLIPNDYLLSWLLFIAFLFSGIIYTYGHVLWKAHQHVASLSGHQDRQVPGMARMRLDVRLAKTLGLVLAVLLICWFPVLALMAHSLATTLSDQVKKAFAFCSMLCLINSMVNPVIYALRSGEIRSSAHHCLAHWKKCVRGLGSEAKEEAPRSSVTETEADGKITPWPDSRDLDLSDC

As to `CCCCn1/c(=N/C(=O)c2cc(C(F)(F)F)ccc2OCC(C)(C)OC)cc(C(C)(C)C)n1C` [G, reference compound], in data set [1] (in vivo, 3 micromole/kg), the clearance (commonly the volume of plasma or blood freed of the substance per unit of time) is 45 mL/min/kg and the half-life (commonly how long it takes for the measured level to halve) is 1.5 h. Besides, in data set [1] (in vivo, 10 micromole/kg), the bioavailability (usually the share of a dose that reaches the circulation, judged against a reference dose that is usually intravenous) turned out to be 5%.
In data set [1] (in vivo, 3 micromole/kg), `CCCCn1/c(=N/C(=O)c2cc(C(F)(F)F)ccc2Cl)cc(C(C)(C)C)n1C` [D, reference compound] gave a clearance of 56.7 mL/min/kg and a half-life of 0.3 h. In addition, the bioavailability in data set [1] (in vivo, 10 micromole/kg) was 10%.
In data set [1] (in vivo, 3 micromole/kg), `Cn1c(C(C)(C)C)c/c(=N\C(=O)c2cccc(C(F)(F)F)c2F)n1CC1CC1` [A, reference compound] gave a clearance of 10 mL/min/kg and a half-life of 0.7 h. Moreover, the bioavailability in data set [1] (in vivo, 10 micromole/kg) is 26%.
Regarding `CCCCn1/c(=N/C(=O)c2cc(Cl)ccc2OC)cc(C(C)(C)C)n1C` [B, reference compound], in data set [1] (in vivo, 3 micromole/kg), the clearance is 40 mL/min/kg and the half-life is 1.7 h. The molecule also gave a bioavailability in data set [1] (in vivo, 10 micromole/kg) of 11%.
For `CCCCCn1/c(=N/C(=O)c2cc(C(F)(F)F)ccc2OCC(C)(C)O)cc(C(C)(C)C)n1C` [Example 99, N-[(3E)-5-tert-butyl-1-methyl-2-pentyl-1,2-dihydro-3H-pyrazol-3-ylidene]-2-(2-hydroxy-2-methylpropoxy)-5-(trifluoromethyl)benzamide], the half-life in data set [1] (in vivo, 3 micromole/kg) was 5.6 h. In addition, the clearance in data set [1] was 18.3 mL/min/kg. Also, the bioavailability in data set [1] worked out at 37%. The Ki (in general, a dissociation constant, usually derived from enzyme kinetics or from competition with a known ligand) at human CB2 receptors (human CB2 (Ki, nM)) is 9.2 nM; on rat CB2 (rat CB2 (Ki, nM)) it was 4.4 nM.
In data set [1] (in vivo, 3 micromole/kg), `CC(C)Cn1/c(=N/C(=O)c2cccc(C(F)(F)F)c2F)cc(C(C)(C)C)n1C` [C, reference compound] gave a clearance of 26.7 mL/min/kg and a half-life of 0.8 h. In data set [1] (in vivo, 10 micromole/kg), this molecule gave a bioavailability of 45%.
For the molecule `Cn1c(C(C)(C)C)c/c(=N\C(=O)c2cc(C(F)(F)F)ccc2OCCCS(C)(=O)=O)n1CC1CCC1` [Example 134, N-[(3E)-5-tert-butyl-2-(cyclobutylmethyl)-1-methyl-1,2-dihydro-3H-pyrazol-3-ylidene]-2-[3-(methylsulfonyl)propoxy]-5-(trifluoromethyl)benzamide], the Ki was found to be 22 nM at human CB2 receptors (human CB2 (Ki, nM)) and 40 nM at rat CB2 (rat CB2 (Ki, nM)).
The like results for `Cn1c(C(C)(C)C)c/c(=N\C(=O)c2cc(C(F)(F)F)ccc2OCC(C)(C)O)n1CC1CCCC1` [Example 106, N-[(3E)-5-tert-butyl-2-(cyclopentylmethyl)-1-methyl-1,2-dihydro-3H-pyrazol-3-ylidene]-2-(2-hydroxy-2-methylpropoxy)-5-(trifluoromethyl)benzamide] were, in that order, 6.6 nM and 8.7 nM.
In the case of `C=C[C@H](O)COc1ccc(C(F)(F)F)cc1C(=O)/N=c1\cc(C(C)(C)C)n(C)n1C[C@H]1CCCO1` [Example 107, N-{(3E)-5-tert-butyl-1-methyl-2-[(2R)-tetrahydrofuran-2-ylmethyl]-1,2-dihydro-3 H-pyrazol-3-ylidene}-2-{[(2S)-2-hydroxybut-3-enyl]oxy}-5-(trifluoromethyl)benzamide], the Ki at human CB2 receptors (human CB2 (Ki, nM)) came out at 2.4 nM; on rat CB2 (rat CB2 (Ki, nM)), 2.9 nM.
Consider `CCCCn1/c(=N/C(=O)c2cc(C(F)(F)F)ccc2SCC(C)O)cc(C(C)(C)C)n1C` (centres unmarked) [Example 136, N-[(3E)-2-butyl-5-tert-butyl-1-methyl-1,2-dihydro-3H-pyrazol-3-ylidene]-2-[(2-hydroxypropyl)thio]-5-(trifluoromethyl)benzamide], for which the inhibition constant Ki on human CB2 receptors (human CB2 (Ki, nM)) worked out at 44 nM; on rat CB2 (rat CB2 (Ki, nM)), 16 nM.
Take `CCCCn1/c(=N/C(=O)c2cc(C#N)ccc2OCC(C)(C)O)cc(C(C)(C)C)n1C` [Example 108, N-[(3E)-2-butyl-5-tert-butyl-1-methyl-1,2-dihydro-3H-pyrazol-3-ylidene]-5-cyano-2-(2-hydroxy-2-methylpropoxy)benzamide]: the Ki at human CB2 receptors (read-out: human CB2 (Ki)) was more than 1000 nM; at rat CB2 (read-out: rat CB2 (Ki)), 288 nM.
Regarding `Cn1c(C(C)(C)C)c/c(=N\C(=O)c2cc(C(F)(F)F)ccc2OCC2(C)COC2)n1C[C@H]1CCCO1` [Example 19, N-{(3E)-5-tert-butyl-1-methyl-2-[(2R)-tetrahydrofuran-2-ylmethyl]-1,2-dihydro-3H-pyrazol-3-ylidene}-2-[3-methyloxetan-3-methoxyl]-5-(trifluoromethyl)benzamide], the Ki on human CB2 receptors (human CB2 (Ki, nM)) was more than 1000 nM; at rat CB2 (rat CB2 (Ki, nM)) it was 323 nM.
As for `CSCCCCOc1ccc(C(F)(F)F)cc1C(=O)/N=c1\cc(C(C)(C)C)n(C)n1C[C@H]1CCCO1` [Example 82, N-{(3E)-5-tert-butyl-1-methyl-2-[(2R)-tetrahydrofuran-2-ylmethyl]-1,2-dihydro-3 H-pyrazol-3-ylidene}-2-[4-(methylthio)butoxy]-5-(trifluoromethyl)benzamide], the Ki on human CB2 receptors (human CB2 (Ki, nM)) was determined as 5.4 nM; at rat CB2 (rat CB2 (Ki, nM)) it was 2.6 nM.
For the molecule `Cn1c(C(C)(C)C)c/c(=N\C(=O)c2cc(C(F)(F)F)ccc2OC[C@@H]2CCCN2S(C)(=O)=O)n1C[C@H]1CCCO1` [Example 61, N-{(3E)-5-tert-butyl-1-methyl-2-[(2R)-tetrahydrofuran-2-ylmethyl]-1,2-dihydro-3 H-pyrazol-3-ylidene}-2-{[(2S)-1-(methylsulfonyl)pyrrolidin-2-yl]methoxy}-5-(trifluoromethyl)benzamide], the Ki at human CB2 receptors (human CB2 (Ki, nM)) was more than 1000 nM; on rat CB2 (rat CB2 (Ki, nM)) it was 433 nM.
In the case of `CSCCCOc1ccc(C(F)(F)F)cc1C(=O)/N=c1\cc(C(C)(C)C)n(C)n1CC1CCC1` [Example 133, N-[(3E)-5-tert-butyl-2-(cyclobutylmethyl)-1-methyl-1,2-dihydro-3H-pyrazol-3-ylidene]-2-[3-(methylthio)propoxy]-5-(trifluoromethyl)benzamide], the Ki at human CB2 receptors (human CB2 (Ki, nM)) was 13 nM; on rat CB2 (rat CB2 (Ki, nM)) it was 15 nM.
Regarding `C[C@H](O)[C@H](C)Oc1ccc(C(F)(F)F)cc1C(=O)/N=c1\cc(C(C)(C)C)n(C)n1C[C@H]1CCCO1` [Example 103, N-{(3E)-5-tert-butyl-1-methyl-2-[(2R)-tetrahydrofuran-2-ylmethyl]-1,2-dihydro-3 H-pyrazol-3-ylidene}-2-{[(1S,2S)-2-hydroxy-1-methylpropyl]oxy}-5-(trifluoromethyl)benzamide], the Ki came to 3.8 nM on human CB2 receptors (human CB2 (Ki, nM)) and 1.7 nM on rat CB2 (rat CB2 (Ki, nM)).
In the case of `COc1ccc(C(F)(F)F)cc1C(=O)/N=c1\cc(C(C)(C)C)n(C)n1CC1CC1` [F, reference compound], in data set [1] (in vivo, 3 micromole/kg), the clearance was 63.3 mL/min/kg and the half-life was 2.1 h. The molecule further showed a bioavailability in data set [1] (in vivo, 10 micromole/kg) of 11%.
`CC(=O)NCCOc1ccc(C(F)(F)F)cc1C(=O)/N=c1\cc(C(C)(C)C)n(C)n1CC1CCC1` [Example 130, 2-[2-(acetylamino)ethoxy]-N-[(3E)-5-tert-butyl-2-(cyclobutylmethyl)-1-methyl-1,2-dihydro-3H-pyrazol-3-ylidene]-5-(trifluoromethyl)benzamide]: the Ki on human CB2 receptors (human CB2 (Ki, nM)) was found to be 5 nM; at rat CB2 (rat CB2 (Ki, nM)), 2.9 nM.
Consider `Cn1c(C(C)(C)C)c/c(=N\C(=O)c2cc(C(F)(F)F)ccc2OCC(C)(C)OCc2ccccc2)n1C[C@H]1CCCO1` [Example 55, 2-[2-(benzyloxy)-2-methylpropoxy]-N-{(3E)-5-tert-butyl-1-methyl-2-[(2R)-tetrahydrofuran-2-ylmethyl]-1,2-dihydro-3H-pyrazol-3-ylidene}-5-(trifluoromethyl)benzamide], for which the Ki on human CB2 receptors (human CB2 (Ki, nM)) was more than 1000 nM; at rat CB2 (rat CB2 (Ki, nM)) it was 458 nM.
In the case of `CCCCn1/c(=N/C(=O)c2cc(C(F)(F)F)ccc2OC)cc(C(C)(C)C)n1C` [E, reference compound], in data set [1] (in vivo, 3 micromole/kg), the clearance is 33.3 mL/min/kg and the half-life was 2.9 h. The same molecule came in with a bioavailability in data set [1] (in vivo, 10 micromole/kg) of 9%.
